From patent publication US6506730B1, “Nasal transmucosal delivery of peptide conjugated with biocompatible polymers” (priority 1999, dated 2003)
Where no end group is shown, it is not given here.

What was measured:
[1] = oral administration; cited from earlier work
[2] = pH 5.5 to 6.0; cited from earlier work
[3] = test system: calcium concentration in plasma; assay: Comparison of calcium reduction effect of sCT and PEG-sCT after nasal administration to rats; format: in vivo, SD (Sprague Dawley) male rat; details: rat; for plasma calcium as % of pre-dose value: n = 4, plasma calcium as ratio to primary value
Description: SD (Sprague Dawley) male rat (220-300 g, Charles River Japan, Atsugi, Japan) was put under anesthesia by administrating 45 mg/kg of peptobarbital into interperitoneal. Bronchus and esophagus were cannulated with PE-250 tube and thigh arteria with SP-45 tube. 20 ul of a placebo and experimental drugs were administered into the nasal cavity of rats with a Hamilton syringe. The placebo used physiological saline and the experimental drug used PEG5000-sCT, PEG12000-sCT, PEG2000-sCT and sCT prepared from the Example 2. Salmon calcitonin was administered at dose of 0.05 to 4.5 IU per rat, and rats were grouped into 4. 200 ul of blood was taken at before, 5, 10, 30, 60, 120, 240, 480 and […] after the placebo and the experimental drugs were administered, and immediately centrifuged to obtain 100 ul of plasma. The calcium concentration in plasma was measured using a calcium assay kit (Sigma, USA), and calcium remaining efficiency was calculated as the calcium concentration before administration was 100. The unit of the measured calcium concentration in plasma was mg/dl, and the remaining efficiency was calculated as the ratio (%) to the primary value.
After the remaining coefficient was calculated according to each time, area-under the curve (AUC) was calculated about the average value of remaining coefficient at each time per experimental group. The reduction ratio of calcium concentration was calculated by the mathematical formula 1, and the results were represented in the table 1 (FIG. 6).
? ΓD(%)=(AUCCa-plac−AUCCa-sCT)/AUCCa-plac ? ┐100
where, AUCCa-plac was AUC from placebo administration to 960 minutes, and AUCCa-sCT was AUC from calcitonin and experimental drugs administration to 960 minutes.

[4] = test system: calcium concentration in plasma; assay: as above; format: in vivo, SD (Sprague Dawley) male rat; details: Time 960 (minutes after nasal administration); rat, n = 4; plasma calcium as ratio to primary value
[5] = nasal transmucosal administration

Row | Substance | absorption half life [1] [min] | bioavailability [1] [%] | elimination half life [1] [min] | stability in acetate buffer [2] | plasma calcium as % of pre-dose value ([3]; Time 0 (before administration = 100), nasal cavity) [%] | plasma calcium as % of pre-dose value ([3]; Time 5 (minutes after nasal administration)) [%] | plasma calcium as % of pre-dose value ([3]; Time 10 (minutes after nasal administration)) [%] | plasma calcium as % of pre-dose value ([3]; Time 30 (minutes after nasal administration)) [%] | plasma calcium as % of pre-dose value ([3]; Time 60 (minutes after nasal administration)) [%] | plasma calcium as % of pre-dose value ([3]; Time 120 (minutes after nasal administration)) [%] | plasma calcium as % of pre-dose value ([3]; Time 240 (minutes after nasal administration)) [%] | plasma calcium as % of pre-dose value ([3]; Time 480 (minutes after nasal administration)) [%] | time after which calcium concentration restored at the original concentration [3, 5] [h] | time for which the calcium concentration was decreased / reduction effect represented after the nasal transmucosal administration [3, 5] [h] | plasma calcium as % of pre-dose value [4] [%]
1 | His-Asp-Tyr-Ala-Tyr-Asp-Lys-NH2 (HDYAYDK-NH2) [GHRP-6] | 15 | 0.3 | 60 | very stable |  |  |  |  |  |  |  |  |  |  | 
2 | salmon calcitonin [sCT] |  |  |  |  | 100 | 98.9 | 93.7 | 95 | 98.7 | 97.8 | 100.3 | 101.6 | 2 | 1 | 101
